One compound from article PMC11096368, “Transcriptomic signature, bioactivity and safety of a non-hepatotoxic analgesic generating AM404 in the midbrain PAG region” (Scientific Reports, 2024) can be followed below.

This series can be described thus: LC–MS/MS detection of D10-SRP-001 and AM404 in the periaqueductal gray (PAG). The settings on record: 30 min after IP injection, LC/MS–MS. In kind it is in vivo, rats. The method, then:
Next, we sought to define the uptake of SRP-001 in the nociception area of the brain, the midbrain’s periaqueductal (PAG) area[42],[43]. Thirty min following ip-SRP-001 administration (32 mg/kg), the PAG was harvested and analyzed by LC/MS–MS. D10-SRP-001 was used to match the fragmentation pattern while monitoring analytes.
Deuterated compound D10-SRP-001 was synthesized by Olon Ricerca Bioscience (Concord, OH), and purity was determined to be > 99.9% by HPLC. This was used as pure analytical standard for detection of SRP-001 using an LC–MS/MS method. Similarly, pure analytical standard of AM404 (10 ng/mL) obtained from Cayman Chemical (Ann Arbor, MI) was used to characterize the full fragmentation pattern of AM404. […] Thirty min post-injection, the animals were sacrificed (same as in the CFA/von Frey model), their brains harvested, and the midbrain periaqueductal gray (PAG) region excised. SRP-001 or AM404 were extracted from the PAG using a liquid–liquid extraction method using 1:1 MeOH:H2O for LC–MS/MS and were loaded onto a liquid chromatography-tandem mass spectrophotometer for analysis. The mass spectrophotometer was operated in multiple reaction monitoring (MRM) mode using positive ion electrospray. D10-SRP-001 was detected by monitoring the m/z transition 416 → 186. AM404 was detected by monitoring the m/z transition 396 → 287.

`[2H]C([2H])([2H])C([2H])([2H])N(C(=O)c1ccccc1S(=O)(=O)NCC(=O)Nc1ccc(O)cc1)C([2H])([2H])C([2H])([2H])[2H]` [D10-SRP-001]: the “Detection in rat brain” value is recorded as “detected in the brain”.
